From patent US10426758B2, “Sibiriline derivatives for use for preventing and/or treating disorders associated with cellular necroptosis” (Institut National de la Sante et de la Recherche Medicale …, priority 2015, dated 2019)

Experiments:
[1] = tested on: L929 cells; experiment: Clonogenic assay (CA); type: cell-based; settings: 10 μM for 24 hours with TNF-α (10 ng/ml)/z-VAD (20 μM); 15 days of culture
Method: This effect of Sibiriline on necroptosis was verified using clonogenic assay (CA). CA is an in vitro cell survival assay based on the ability of a single cell to grow into a colony.
L929 cells are treated by TNF-α (10 ng/ml)/z-VAD (20 μM) w/or w/o 10 μM Sib for 24 hours. After treatment, cells are seeded out in appropriate dilutions (here 5,000 cells per well) to form colonies in 2 weeks. Colonies are fixed with ice cold methanol and stained with crystal violet.

[2] = tested on: U937 cells; experiment: Anti-necroptotic effect, U937 cells, TRAIL + zVAD + CHX, FACS of propidium iodide-stained nuclei; type: cell-based
Method: (§1) L929 cells, L929AsFas cells, Jurkat FADD-deficient cells (Jurkat FADD^−/−), U937 cells are pretreated for 1 h with increased concentrations of Sib (0, 5, 10, 20 μM) and then treated respectively with TNF-α (10 ng/ml)+zVAD (20 μM), FasL (200 ng/ml)+zVAD (20 μM), TNF-α (10 ng/ml), TRAIL (200 ng/ml)+zVAD (30 μM) or TRAIL (200 ng/ml)+zVAD (30 μM)+CHX (1 μg/ml). % of cell death is determined after 24 h and calculated by a FACS analysis of Propidium Iodide-stained nuclei. In each case, the EC50 is determined as well as the % of rescue from cell death.

[3] = tested on: L929 cells; experiment: Anti-necroptotic effect, L929 cells, TNF + zVAD, FACS of propidium iodide-stained nuclei; type: cell-based
Method: as §1

[4] = tested on: cytochrome P450 CYP1A enzymes in HepG2 cells; experiment: Ethoxyresorufin O-deethylase (EROD) activity in HepG2 cells; type: in vitro ADME, human; settings: 10 μM, 24 hours
Method: EROD activity corresponds to the O-deethylation of ethoxyresorufin and is mainly supported by cytochrome P450 CYP1A enzymes in HepG2 cells. Induction of CYP1A is mediated through the binding of xenobiotics to a cytosolic aryl hydrocarbon receptor AhR.
Human liver cancer cell lines HepG2 were treated with 10 μM of Sib, Nec-1 or Nec-1s for 24 hours. After treatment, HepG2 cells were incubated in PBS containing 5 mM ethoxyresorufin and kinetic reading was performed at 37° C. with spectrofluorometer (SpectraMax Gemini SX) over a 15 min period.

[5] = tested on: Jurkat FADD-deficient cells (Jurkat FADD−/−); experiment: Anti-necroptotic effect, Jurkat FADD-deficient cells, TNF, FACS of propidium iodide-stained nuclei; type: cell-based, human
Method: as §1

[6] = molecular target: T1, EPHB6 (Homo sapiens, UniProt O15197); experiment: Competition binding assay for kinase targets of Sib (456 kinases); settings: remaining kinase on the matrix after competition, read-out: Percent Control (%)
T1 sequence (O15197 32-1021): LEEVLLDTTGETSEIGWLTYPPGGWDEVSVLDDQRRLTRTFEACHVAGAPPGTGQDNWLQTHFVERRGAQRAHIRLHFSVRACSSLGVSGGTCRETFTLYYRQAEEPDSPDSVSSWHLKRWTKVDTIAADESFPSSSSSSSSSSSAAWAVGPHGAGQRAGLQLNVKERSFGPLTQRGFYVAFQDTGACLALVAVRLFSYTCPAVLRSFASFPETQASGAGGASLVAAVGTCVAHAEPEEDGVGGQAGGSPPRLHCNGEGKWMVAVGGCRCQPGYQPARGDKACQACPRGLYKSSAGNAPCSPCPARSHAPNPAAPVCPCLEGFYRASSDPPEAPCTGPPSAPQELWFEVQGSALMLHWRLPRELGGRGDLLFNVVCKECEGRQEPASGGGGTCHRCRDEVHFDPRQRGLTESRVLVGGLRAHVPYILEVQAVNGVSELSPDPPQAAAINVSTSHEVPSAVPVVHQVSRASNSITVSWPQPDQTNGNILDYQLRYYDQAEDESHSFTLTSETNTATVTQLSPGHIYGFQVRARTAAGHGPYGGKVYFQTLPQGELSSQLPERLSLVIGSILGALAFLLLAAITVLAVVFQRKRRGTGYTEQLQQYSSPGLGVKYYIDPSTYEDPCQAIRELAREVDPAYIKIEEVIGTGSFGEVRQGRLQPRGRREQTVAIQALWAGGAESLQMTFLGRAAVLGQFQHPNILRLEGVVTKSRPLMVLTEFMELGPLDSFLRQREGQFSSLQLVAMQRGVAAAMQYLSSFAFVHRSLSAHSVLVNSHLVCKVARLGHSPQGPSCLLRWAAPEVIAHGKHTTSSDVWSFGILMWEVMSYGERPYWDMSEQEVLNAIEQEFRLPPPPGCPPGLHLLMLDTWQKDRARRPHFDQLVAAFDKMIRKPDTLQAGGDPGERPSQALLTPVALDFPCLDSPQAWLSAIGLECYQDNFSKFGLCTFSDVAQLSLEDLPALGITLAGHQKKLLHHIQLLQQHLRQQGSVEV
Method: (§2) The assay is performed by combining three components: DNA-tagged kinase (a total of 456 kinases were tested); immobilized ligand; and a test compound (here Sib). The ability of Sib to compete with the immobilized ligand is measured via quantitative PCR of the DNA tag.

[7] = molecular target: KIT(V559D) (Homo sapiens, UniProt P10721, V559D); experiment: as above; settings: remaining kinase on the matrix after competition, read-out: Percent Control (%)
Method: as §2

[8] = molecular target: PDGFRB (Homo sapiens, UniProt P09619); experiment: as above; settings: remaining kinase on the matrix after competition, read-out: Percent Control (%)
Method: as §2

[9] = tested on: Jurkat Fadd deficient cells; experiment: Delayed treatment of Sib on TNF-induced necroptotic cell-death; type: cell-based, human; settings: 10 μM added 1 h, 2 h, 3 h or 4 h after TNF-α (10 ng/ml); cell death after 24 h
Method: Jurkat Fadd deficient cells are treated with TNF-α (10 ng/ml) then treated with Sib (10 μM) at 1 h, 2 h, 3 h or 4 h after adding TNF-α. % of cell death is determined after 24 h and calculated by a FACS analysis of Propidium Iodide-stained nuclei. Quantitative analysis of three independent experiments with means±SD.

Chain of PDGFRB (P09619 33-1106): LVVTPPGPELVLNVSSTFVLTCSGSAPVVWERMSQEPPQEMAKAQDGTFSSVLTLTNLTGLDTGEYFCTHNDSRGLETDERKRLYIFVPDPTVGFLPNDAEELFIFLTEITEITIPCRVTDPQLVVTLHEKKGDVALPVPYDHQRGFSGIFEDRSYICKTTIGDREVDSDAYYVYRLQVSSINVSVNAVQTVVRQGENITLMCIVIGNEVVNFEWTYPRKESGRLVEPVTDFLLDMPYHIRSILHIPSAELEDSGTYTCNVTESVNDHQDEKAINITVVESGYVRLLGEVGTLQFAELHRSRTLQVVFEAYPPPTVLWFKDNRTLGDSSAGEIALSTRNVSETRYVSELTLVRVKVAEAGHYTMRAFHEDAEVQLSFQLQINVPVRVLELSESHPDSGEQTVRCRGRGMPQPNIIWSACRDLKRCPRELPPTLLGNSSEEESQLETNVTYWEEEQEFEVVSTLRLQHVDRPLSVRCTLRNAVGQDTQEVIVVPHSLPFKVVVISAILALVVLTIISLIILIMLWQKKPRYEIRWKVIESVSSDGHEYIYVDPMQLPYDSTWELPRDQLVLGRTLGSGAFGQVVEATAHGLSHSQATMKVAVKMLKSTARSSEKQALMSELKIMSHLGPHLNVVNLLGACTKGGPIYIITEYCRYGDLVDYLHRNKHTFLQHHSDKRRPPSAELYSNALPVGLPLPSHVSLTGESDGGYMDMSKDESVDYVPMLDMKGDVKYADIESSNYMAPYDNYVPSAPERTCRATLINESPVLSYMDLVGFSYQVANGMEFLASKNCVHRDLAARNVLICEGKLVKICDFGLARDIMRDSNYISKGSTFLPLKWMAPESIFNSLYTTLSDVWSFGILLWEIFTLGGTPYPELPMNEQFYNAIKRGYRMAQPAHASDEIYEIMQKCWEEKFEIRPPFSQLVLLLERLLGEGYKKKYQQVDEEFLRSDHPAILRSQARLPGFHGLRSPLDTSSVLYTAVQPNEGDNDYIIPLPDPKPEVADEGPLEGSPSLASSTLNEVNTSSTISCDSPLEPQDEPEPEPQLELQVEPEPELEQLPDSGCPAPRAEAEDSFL
Chain of KIT(V559D) (P10721 26-976 V559D): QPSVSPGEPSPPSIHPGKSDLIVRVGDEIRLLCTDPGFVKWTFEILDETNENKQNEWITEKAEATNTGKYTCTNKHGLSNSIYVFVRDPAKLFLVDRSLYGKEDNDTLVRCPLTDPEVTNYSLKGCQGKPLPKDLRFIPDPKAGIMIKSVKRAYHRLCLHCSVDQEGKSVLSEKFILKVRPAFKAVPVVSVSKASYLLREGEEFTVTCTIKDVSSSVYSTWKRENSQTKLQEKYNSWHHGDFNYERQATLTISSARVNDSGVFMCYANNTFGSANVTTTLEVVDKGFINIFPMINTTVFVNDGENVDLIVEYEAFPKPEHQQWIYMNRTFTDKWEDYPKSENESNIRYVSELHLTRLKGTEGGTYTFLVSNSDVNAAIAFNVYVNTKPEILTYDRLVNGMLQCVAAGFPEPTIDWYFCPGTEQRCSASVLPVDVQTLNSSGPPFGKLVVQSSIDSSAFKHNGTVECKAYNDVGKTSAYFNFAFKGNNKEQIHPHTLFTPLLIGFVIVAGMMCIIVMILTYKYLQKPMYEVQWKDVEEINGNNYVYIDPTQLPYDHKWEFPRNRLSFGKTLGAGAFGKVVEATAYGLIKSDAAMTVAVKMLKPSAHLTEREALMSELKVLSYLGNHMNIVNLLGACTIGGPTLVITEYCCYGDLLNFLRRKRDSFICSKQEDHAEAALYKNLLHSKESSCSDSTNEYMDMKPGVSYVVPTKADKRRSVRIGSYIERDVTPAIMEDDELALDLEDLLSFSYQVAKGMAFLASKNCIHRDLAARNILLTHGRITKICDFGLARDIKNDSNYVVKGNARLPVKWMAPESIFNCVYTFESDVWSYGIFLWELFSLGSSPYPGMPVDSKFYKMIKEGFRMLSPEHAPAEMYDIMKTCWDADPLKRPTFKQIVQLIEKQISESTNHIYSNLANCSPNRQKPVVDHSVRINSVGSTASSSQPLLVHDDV

With Oc1ccc(-c2cc3cccnc3[nH]2)cc1 [compound 2, 4-(1H-pyrrolo[2,3-b]pyridin-2-yl)phenol] the “cell colonies (cellular growth) after treatment” value [1] was “can restore the cellular growth and protect cells from death”, the EC50 ([2]; Homo sapiens, U-937, 1 h pretreatment, cell death after 24 h) was 20 µM and the “% Rescue” value ([2]; rescue from cell death, 24 h) was 50%. The EC50 ([3]; Mus musculus, 1 h pretreatment, cell death after 24 h) was 3 µM, the “% Rescue” value ([3]; rescue from cell death, 24 h) was 80% and the “induction of EROD activity” value [4] was “do not induce EROD activity”. For the same molecule, the EC50 ([5]; Homo sapiens, 1 h pretreatment, cell death after 24 h) was 1.2 µM, the “% Rescue” value ([5]; rescue from cell death, 24 h) was 90% and the remaining binding at 10 µM [6] was 0.65%. The remaining binding at 10 µM [7] was 0.4%, the remaining binding at 10 µM [8] was 0.75% and the “effect on necroptotic cell-death with delayed treatment” value [9] was “inhibits the necroptotic cell-death”.
